Test results as given in article PMC10653547, “Synergistic effect of two antimicrobial peptides, BP203 and MAP-0403 J-2 with conventional antibiotics against colistin-resistant Escherichia coli and Klebsiella pneumoniae clinical isolates” (PLOS ONE, 2023).
Like-named read-outs stand apart in the source and are kept apart here. No end group written: not given here.

Legend:
[1] = system: E. coli ATCC 25922 and colistin-resistant E. coli clinical isolates; conditions: for MICs against colistin-resistant E. coli clinical isolates: range over ten isolates
Method: (§1) The MICs of BP203 and MAP-0403 J-2 against clinically colistin-resistant E. coli and K. pneumoniae isolates were determined using the broth microdilution method, according to CLSI recommendations. Briefly, the peptides were subjected to serial dilution in cation-adjusted Mueller-Hinton broth (CAMHB) and added to a 96-well microtiter plate (Wuxi NEST Biotechnology, Wuxi, China). Subsequently, bacterial suspensions from freshly mid-log phase cultures were diluted to 10^6 CFU/mL with CAMHB, and introduced to each well containing the peptides.

[2] = system: K. pneumoniae ATCC BAA-1706 and colistin-resistant K. pneumoniae clinical isolates; conditions: for MIC against colistin-resistant K. pneumoniae clinical isolates: range over ten isolates
Method: as §1

E. coli ATCC 25922 = system: E. coli ATCC 25922
Method: as §1
(§2) The antibacterial activity of BP203 and MAP-0403 J-2 was evaluated concerning their response to temperature, pH, serum, and salt ions using the MIC assay, following the previously mentioned procedure. The MIC values of peptides were determined against E. coli ATCC29522 and K. pneumoniae ATCC BAA-1706. […] For the pH stability assay, both peptides were incubated in buffers with different pH values (100 mM buffers: glycine-HCl buffer (pH 2.0), sodium acetate buffer (pH 4.0), sodium phosphate buffer (pH 6.0), Tris-HCl buffer (pH 8.0), and glycine-NaOH buffer (pH 10.0)) for 1 h at 37°C. […] For serum stability assay, both peptides were exposed to 25% and 50% fetal bovine serum (FBS) for 1 h at 37°C, followed by a heat activation step for 30 min at 60°C. Afterward, the peptide solutions were serially diluted and MIC was subsequently determined. For the salt stability assay, each peptide was treated in MHB supplemented with different salts at their physiological concentrations; NaCl (100, 150, and 200 mM), MgCl2 (0.5, 1 and 2 mM), and FeCl3 […]. The serial dilutions of peptides were incubated with tested strains for MIC testing. The MICs were observed after 20–24 h of incubation at 37°C.

[3] = system: K. pneumoniae ATCC BAA-1706
Method: as §1, §2

[4] = 25% fetal bovine serum, 1 h at 37 °C
[5] = 50% fetal bovine serum, 1 h at 37 °C
[6] = pH 2, 100 mM glycine-HCl buffer, 1 h at 37 °C, neutralized
[7] = pH 4, 100 mM sodium acetate buffer, 1 h at 37 °C, neutralized
[8] = pH 6, 100 mM sodium phosphate buffer, 1 h at 37 °C, neutralized
[9] = pH 8, 100 mM Tris-HCl buffer, 1 h at 37 °C, neutralized
[10] = pH 10, 100 mM glycine-NaOH buffer, 1 h at 37 °C, neutralized
[11] = peptide incubated 1 h at 25 °C (control)

CC[C@H](C)[C@H](NC(=O)[C@H](CCCCN)NC(=O)[C@H](CCCCN)NC(=O)[C@H](Cc1ccccc1)NC(=O)[C@H](CC(C)C)NC(=O)[C@H](CCCCN)NC(=O)[C@@H](N)CCCCN)C(=O)N[C@@H](CC(C)C)C(=O)N[C@@H](CCCNC(=N)N)C(=O)N[C@@H](Cc1ccc(O)cc1)C(=O)N[C@@H](CC(C)C)C(N)=O [BP203]
2 µg/mL: MBC ([1]; EC-01) | MIC ([1]; EC-01) | MBC ([1]; EC-03) | MIC ([1]; EC-03) | MIC ([1]; EC-04) | MBC ([1]; EC-06) | MIC ([1]; EC-06) | MBC ([1]; EC-09) | MIC ([1]; EC-09)
4 µg/mL: MBC ([1]; E. coli ATCC 25922) | MIC ([1]; E. coli ATCC 25922) | MBC ([1]; EC-04) | MBC ([2]; K. pneumoniae ATCC BAA-1706) | MIC ([2]; K. pneumoniae ATCC BAA-1706) | MIC after FBS treatment (E. coli ATCC 25922; 0% FBS (control)) | MIC after FBS treatment (E. coli ATCC 25922; [4]) | MIC after temperature treatment (E. coli ATCC 25922; [11]) | MIC after temperature treatment (E. coli ATCC 25922; peptide incubated 1 h at 37 °C) | MIC after temperature treatment (E. coli ATCC 25922; peptide incubated 1 h at 50 °C) | MIC after temperature treatment (E. coli ATCC 25922; peptide incubated 1 h at 70 °C) | MIC after temperature treatment (E. coli ATCC 25922; peptide incubated 1 h at 90 °C) | MIC after FBS treatment ([3]; 0% FBS (control)) | MIC after FBS treatment [3, 4] | MIC after FBS treatment [3, 5] | MIC after temperature treatment [3, 11] | MIC after temperature treatment ([3]; peptide incubated 1 h at 37 °C) | MIC after temperature treatment ([3]; peptide incubated 1 h at 50 °C) | MIC after temperature treatment ([3]; peptide incubated 1 h at 70 °C) | MIC after temperature treatment ([3]; peptide incubated 1 h at 90 °C)
256 µg/mL: MBC ([2]; KP-02) | MIC ([2]; KP-02) | MBC ([2]; KP-06) | MIC ([2]; KP-06) | MBC ([2]; KP-08) | MIC ([2]; KP-08)
32 µg/mL: MBC ([2]; KP-05) | MIC ([2]; KP-05)
16 to 512 µg/mL: MIC against colistin-resistant K. pneumoniae clinical isolates [2]
4 μg/mL: MIC after pH treatment (E. coli ATCC 25922; [6]) | MIC after pH treatment (E. coli ATCC 25922; [7]) | MIC after pH treatment (E. coli ATCC 25922; [8]) | MIC after pH treatment (E. coli ATCC 25922; pH 7 (control)) | MIC after pH treatment (E. coli ATCC 25922; [9]) | MIC after pH treatment (E. coli ATCC 25922; [10]) | MIC after pH treatment [3, 6] | MIC after pH treatment [3, 7] | MIC after pH treatment [3, 8] | MIC after pH treatment ([3]; pH 7 (control)) | MIC after pH treatment [3, 9] | MIC after pH treatment [3, 10]
> 128 µg/mL: MIC for the majority of (most) colistin-resistant K. pneumoniae isolates [2]
512 µg/mL: MBC ([2]; KP-04) | MIC ([2]; KP-04) | MBC ([2]; KP-09) | MIC ([2]; KP-09) | MBC ([2]; KP-10) | MIC ([2]; KP-10)
2 to 16 µg/mL: MICs against colistin-resistant E. coli clinical isolates [1]
16 µg/mL: MBC ([1]; EC-08) | MIC ([1]; EC-08) | MBC ([2]; KP-01) | MIC ([2]; KP-01)
8 µg/mL: MBC ([1]; EC-02) | MIC ([1]; EC-02) | MBC ([1]; EC-05) | MIC ([1]; EC-05) | MBC ([1]; EC-07) | MIC ([1]; EC-07) | MBC ([1]; EC-10) | MIC ([1]; EC-10) | MIC after FBS treatment (E. coli ATCC 25922; [5])
128 µg/mL: MBC ([2]; KP-03) | MIC ([2]; KP-03) | MBC ([2]; KP-07) | MIC ([2]; KP-07)

KWLRRPWRRWR-NH2 [MAP-0403 J-2]
8 µg/mL: MIC ([1]; EC-03) | MBC ([1]; EC-04) | MIC ([1]; EC-04) | MIC ([1]; EC-09)
>512 µg/mL: MBC ([2]; KP-01) | MIC ([2]; KP-01) | MBC ([2]; KP-03) | MIC ([2]; KP-03) | MBC ([2]; KP-04) | MIC ([2]; KP-04) | MBC ([2]; KP-06) | MIC ([2]; KP-06) | MBC ([2]; KP-07) | MIC ([2]; KP-07) | MBC ([2]; KP-08) | MIC ([2]; KP-08) | MBC ([2]; KP-09) | MIC ([2]; KP-09) | MBC ([2]; KP-10) | MIC ([2]; KP-10)
64 µg/mL: MBC ([1]; EC-05) | MBC ([1]; EC-08) | MBC ([1]; EC-10)
≥ 512 µg/mL: MIC against colistin-resistant K. pneumoniae clinical isolates [2]
8 to 32 µg/mL: MICs against colistin-resistant E. coli clinical isolates [1]
16 μg/mL: MIC after pH treatment (E. coli ATCC 25922; [6]) | MIC after pH treatment (E. coli ATCC 25922; [7]) | MIC after pH treatment (E. coli ATCC 25922; [8]) | MIC after pH treatment (E. coli ATCC 25922; pH 7 (control)) | MIC after pH treatment (E. coli ATCC 25922; [9]) | MIC after pH treatment (E. coli ATCC 25922; [10]) | MIC after pH treatment [3, 6] | MIC after pH treatment [3, 7] | MIC after pH treatment [3, 8] | MIC after pH treatment ([3]; pH 7 (control)) | MIC after pH treatment [3, 9] | MIC after pH treatment [3, 10]
32 µg/mL: MBC ([1]; EC-01) | MBC ([1]; EC-02) | MIC ([1]; EC-02) | MIC ([1]; EC-05) | MBC ([1]; EC-06) | MIC ([1]; EC-06) | MBC ([1]; EC-07) | MIC ([1]; EC-07) | MIC ([1]; EC-08) | MBC ([1]; EC-09) | MIC ([1]; EC-10) | MIC after FBS treatment (E. coli ATCC 25922; [5])
256 µg/mL: MBC ([2]; KP-02) | MIC ([2]; KP-05)
16 µg/mL: MBC ([1]; E. coli ATCC 25922) | MIC ([1]; E. coli ATCC 25922) | MIC ([1]; EC-01) | MBC ([1]; EC-03) | MBC ([2]; K. pneumoniae ATCC BAA-1706) | MIC ([2]; K. pneumoniae ATCC BAA-1706) | MIC after FBS treatment (E. coli ATCC 25922; 0% FBS (control)) | MIC after FBS treatment (E. coli ATCC 25922; [4]) | MIC after temperature treatment (E. coli ATCC 25922; [11]) | MIC after temperature treatment (E. coli ATCC 25922; peptide incubated 1 h at 37 °C) | MIC after temperature treatment (E. coli ATCC 25922; peptide incubated 1 h at 50 °C) | MIC after temperature treatment (E. coli ATCC 25922; peptide incubated 1 h at 70 °C) | MIC after temperature treatment (E. coli ATCC 25922; peptide incubated 1 h at 90 °C) | MIC after FBS treatment ([3]; 0% FBS (control)) | MIC after FBS treatment [3, 4] | MIC after FBS treatment [3, 5] | MIC after temperature treatment [3, 11] | MIC after temperature treatment ([3]; peptide incubated 1 h at 37 °C) | MIC after temperature treatment ([3]; peptide incubated 1 h at 50 °C) | MIC after temperature treatment ([3]; peptide incubated 1 h at 70 °C) | MIC after temperature treatment ([3]; peptide incubated 1 h at 90 °C)
128 µg/mL: MIC ([2]; KP-02)
512 µg/mL: MBC ([2]; KP-05)
